Results as given in patent US20250114325A1 (JIANGSU PROVINCE HOSPITAL OF CHINESE MEDICINE, priority 2022, published 2025).

Experiments:
Assay type in all cases: cell-based, human
Hela cells [1] = experiment: Annexin V-AF647/PI flow cytometry apoptosis assay; details: added to Atr-I (BzATP 100 μM or JNJ 20 μM); 48 h
Experimental: (§2) The cell lines selected were human cervical cancer Hela (HPV18+) and Siha (HPV16+) cell lines.
(§3) The proportion of apoptotic cells was measured using the Annexin V-AF647/PI Apoptosis Kit (E-CK-A213; Elabscience Biotechnology, Wuhan, China). The cells in logarithmic growth phase were used and seeded in a culture bottle at a suspension density of 1×10^6 cells/mL, and then cultured in a CO2 incubator for 24 h. […] Subsequently, the cells were re-suspended in 500 μL of the binding buffer. After adding 5 μL of Annexin V-AF647 and 5 μL of PI to the cell suspension, respectively, the cell cycle was assayed using FACSCalibur flow cytometry (BD Biosciences, San Jose, CA, USA). The data were analyzed with FlowJo software (FlowJo, Ashland, OR, USA).

SiHa cells [2] = experiment: Annexin V-AF647/PI flow cytometry apoptosis assay; details: added to Atr-I (BzATP 100 μM or JNJ 20 μM); 48 h
Experimental: as §2, §3

Hela cells [3] = experiment: Cell proliferation experiment (CCK-8 cell viability); details: single agent, 24 h, 48 h, 72 h, dose and time-dependent
Experimental: (§1) Assay of cell viability by CCK-8 kit: Cells (cell density: 1000 cells/well) were inoculated in a 96-well plate and cultured for 24 hours. […] Cell proliferation was detected using Cell Counting Kit-8 (CCK-8).

SiHa cells [4] = experiment: as above; details: single agent, 24 h, 48 h, 72 h, dose and time-dependent
Experimental: as §1

## Nc1ncnc2c1ncn2[C@@H]1O[C@H](COP(=O)(O)OP(=O)(O)OP(=O)(O)O)[C@@H](OC(=O)c2ccc(C(=O)c3ccccc3)cc2)[C@H]1O [BzATP]
Hela cells [1]
  effect on Atr-I-induced apoptosis in Hela cells: inhibited Atr-I-induced apoptosis in Hela cells
SiHa cells [2]
  effect on Atr-I-induced apoptosis in SiHa cells: had no effect on Atr-I-induced apoptosis in SiHa cells
Hela cells [3]
  inhibition of growth of Hela cells: significantly inhibited the growth
SiHa cells [4]
  inhibition of growth of SiHa cells: significantly inhibited the growth
